We go through 2 compounds from US8299081B2, “Methods for treating drug resistant cancer” (Novartis AG, priority 2005, dated 2012).

Values after ≈ are worked out from the molar mass of the structure shown. Where two headings read alike, the source gives them in different places.

One series has as its target P-glycoprotein (Homo sapiens, UniProt P08183). The experiment in a line: P-GP substrate status. It is filed as in vitro ADME.
The subject of series [1] is KM12L4A human colon tumor xenografts. The series can be described thus: KM12L4A human colon tumor xenografts. The series is classed as in vivo, nude mice. The note with it: large established tumors 500 or 1000 mm^3, dosed daily. The source says:
These compounds have also shown oral activity in a variety of angiogenesis tumor and metastases animal models.

Another series concerns MV4;11 cells. The experiment in a line: Intravenous bone marrow (BM) engraftment model MV4;11. It is filed as in vivo, SCID-NOD mice. As to the method:
For processing of bone marrow (BM) cells from the mouse MV4;11 engraftment model, femurs were purged with cold saline and red blood cells lysed with FACS lysis buffer (Becton Dickinson). Percent engraftment of human leukemic cells in mouse BM was determined by staining with anti-human HLA-A,B,C-FITC (vs. isotype-matched antibody-FITC control) (BD Pharmingen).
[…]. […] Mice were monitored daily and were euthanized when moribund or early signs of loss of hind limb motility. Increased life span (ILS) of treated mice was calculated as a percent increase in median survival time (MST) vs. vehicle treated control mice.
. In this model, MV4;11 cells disseminate to the bone marrow (BM), pathologically mimicking a disease pattern similar to human leukemia. […]. Histological analyses and flow cytometry were used to quantify the % engraftment of MV4;11 cells in BM (FIG. 21). In flow cytometric analyses, human MV4;11 cells were identified in mouse BM with an anti-human HLA-A,B,C antibody which binds to an epitope on human MHCl. In vehicle-treated mice, approximately 2-19% of total isolated BM cells consisted of engrafted MV4;11 cells (day 51, FIG. 21-a). This was also corroborated by immunohistochemistry with an antibody to human mitochondria which stains MV4;11 cells identifying the human cells in the mouse BM matrix (FIG. 21-b,c). […].

For the next series, the system named is pSTAT5 in MV4;11 tumors. The series can be described thus: Target modulation in vivo: pSTAT5 in MV4;11 tumors. The note with it: Mus musculus.
On the set-up of series [2]: species or system human. The note with it: in vivo. As to the method:
(§1) Phase I dose escalating multi-center open label studies were conducted to evaluate the safety, pharmacokinetics, and pharmacodynamics of Compound 1 in subjects with advanced solid malignancies. Further primary objectives of the studies included: 1) determining the Maximum Tolerated Dose (MTD); 2) identifying Dose Limiting Toxicity (DLT); and 3) assessing safety provil in subject with advanced solid tumors. Secondary objectives of the study included: 1) evaluating pharmacokinetics; 2) evaluating pharmacodynamics in plasma, peripheral blood lymphocytes, urine, and tumor cells; 3) recommending dose and schedule for future investigations; and 4) determining evidence of anti-tumor activity (RECIST). Details regarding this study are set forth below
[…]. Plasma exposure in the 100 mg dose group approaches the range where preclinical efficacy has been noted.

The test system of series [3] is advanced solid malignancies. The experiment in a line: Phase I dose escalating study: anti-tumor activity. It is filed as in vivo, human. As to the method: as §1, with “below […]” for “below”
The conditions of series [4]: human, in vivo. The protocol: as §1, with “below […]” for “below”
The next series concerns MV4;11 tumors. The series can be described thus: Subcutaneous MV4;11 tumor xenograft model. It is filed as in vivo, SCID-NOD mice.
A further series has as its system RS4;11 tumors. The experiment in a line: Subcutaneous RS4;11 tumor xenograft model. It is filed as in vivo, SCID-NOD mice.
Series [5] deals with L1210 murine leukemia cells (parental line). To be noted: cited from earlier work.
Series [6] concerns melphalan-resistant L1210 murine leukemia cells. To be noted: cited from earlier work.
The mark [7] stands for this setting: MV4;11, 30 mg/kg/d, dose-response study.
Setting [8] is: large MV4;11 tumors 300, 500 or 1000 mm^3, 30 mg/kg/d, n=27.

Chain of P-glycoprotein (P08183 whole entry): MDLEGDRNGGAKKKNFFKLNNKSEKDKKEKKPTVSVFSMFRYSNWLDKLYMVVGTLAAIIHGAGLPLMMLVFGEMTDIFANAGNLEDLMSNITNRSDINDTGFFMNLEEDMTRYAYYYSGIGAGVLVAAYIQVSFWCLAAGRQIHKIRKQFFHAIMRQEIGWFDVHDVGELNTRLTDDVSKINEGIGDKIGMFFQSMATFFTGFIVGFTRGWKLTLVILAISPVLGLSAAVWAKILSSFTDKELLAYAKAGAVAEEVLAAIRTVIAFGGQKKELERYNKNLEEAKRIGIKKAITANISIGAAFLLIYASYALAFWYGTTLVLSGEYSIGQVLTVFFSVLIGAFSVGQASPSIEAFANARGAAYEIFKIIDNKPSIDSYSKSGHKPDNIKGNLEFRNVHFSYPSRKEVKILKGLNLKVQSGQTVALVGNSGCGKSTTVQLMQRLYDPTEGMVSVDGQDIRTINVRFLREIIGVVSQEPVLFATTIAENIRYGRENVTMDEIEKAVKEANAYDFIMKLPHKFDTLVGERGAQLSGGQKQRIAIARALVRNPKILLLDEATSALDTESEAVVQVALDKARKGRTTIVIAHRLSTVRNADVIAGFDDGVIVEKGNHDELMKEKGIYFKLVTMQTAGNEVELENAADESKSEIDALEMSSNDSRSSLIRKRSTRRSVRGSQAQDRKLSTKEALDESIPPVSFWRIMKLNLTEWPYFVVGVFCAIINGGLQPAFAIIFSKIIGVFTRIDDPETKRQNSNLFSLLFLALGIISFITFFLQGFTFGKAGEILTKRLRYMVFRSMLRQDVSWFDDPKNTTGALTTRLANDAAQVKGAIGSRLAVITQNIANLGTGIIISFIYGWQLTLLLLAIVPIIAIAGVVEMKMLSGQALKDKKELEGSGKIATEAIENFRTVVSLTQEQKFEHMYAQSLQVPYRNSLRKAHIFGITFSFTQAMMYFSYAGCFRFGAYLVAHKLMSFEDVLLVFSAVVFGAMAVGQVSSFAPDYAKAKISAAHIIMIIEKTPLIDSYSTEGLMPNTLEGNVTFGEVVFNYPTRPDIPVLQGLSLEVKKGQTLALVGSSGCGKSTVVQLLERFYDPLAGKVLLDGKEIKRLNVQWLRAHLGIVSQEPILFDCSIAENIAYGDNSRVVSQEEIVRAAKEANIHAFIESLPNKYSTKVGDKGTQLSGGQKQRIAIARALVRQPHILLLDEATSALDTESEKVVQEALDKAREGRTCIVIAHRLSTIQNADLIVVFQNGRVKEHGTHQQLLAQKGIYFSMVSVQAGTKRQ

Usually TGI stands for the reduction of tumour growth relative to the control group. `CN1CCN(c2ccc3nc(-c4c(N)c5c(F)cccc5[nH]c4=O)[nH]c3c2)CC1` [Compound 1, 4-amino-5-fluoro-3-[6-(4-methyl-piperazin-1-yl)-1H-benzimidazol-2-yl]-1H-quinolin-2-one]: the P-GP substrate result on P-glycoprotein was “not a P-GP substrate”. Besides, in [1], the “treated animals with regression and/or disease stabilization” value was 90-100%. This compound also had an MST in the series on MV4;11 cells (20 mg/kg cyclic, 7 days on/7 days off, 5 cycles) of 118 days. The “MV4;11 cells in BM (leukemic burden)” value in the series with MV4;11 cells (20 mg/kg daily over 25 days, flow cytometry) is on record as < 1%. In addition, the “increased life span (ILS)” value with MV4;11 cells (20 mg/kg daily, vs vehicle) is 163%. In addition, the inhibition at 10 mg/kg with pSTAT5 in MV4;11 tumors (MV4-11, read-out: inhibition of STAT5 phosphorylation in tumors, 10 mg/kg/d x 5 days, 8 hour post dose (maximum)) came to 90%. Moreover, the inhibition at 10 mg/kg with pSTAT5 in MV4;11 tumors (MV4-11, read-out: inhibition of STAT5 phosphorylation in tumors, 10 mg/kg/d x 5 days, 24 hours) stood at 85%. Further, in the series with pSTAT5 in MV4;11 tumors (MV4-11, read-out: inhibition of p-STAT5 in tumors, 10 mg/kg/d x 5 days, 48 hours post dose), the inhibition at 10 mg/kg stood at 60%. Further, in [2], the “plasma exposure (Cmax, AUC) versus dose” value is given as “increases proportionally with dose”. For the same compound, in [3] (7/22 patients), the “patients with stable disease (SD) at their first evaluation” value amounted to 32%. Moreover, the “patients with SD for greater than 4 months” value in [3] (in vivo) came out at 4 patients. Also, in [4], the “Anorexia, drug-related clinical adverse events ≥G2” value is recorded as 2 and the “Hypertension (DLT), drug-related clinical adverse events ≥G2” value was 2 (1 G3). Also, the “tumor growth inhibition (TGI)” value in the series on MV4;11 tumors (MV4;11, 1 mg/kg/d oral, after 2 weeks of dosing) came to 23%. Further, the “number of CR” value with MV4;11 tumors (MV4;11, 30 mg/kg daily, schedule study) is listed as 1. In the series with MV4;11 tumors (MV4;11, 30 mg/kg, intermittent dosage regimens), the TGI is > 94%. For the same compound, in the series with MV4;11 tumors (setting [7]), the “complete responders (CR)” value is 1 and the “tumor responses (regression)” value stood at 9110. In addition, the “PRs durable for 40 days after cessation of dosing” value in the series with MV4;11 tumors (MV4;11, after 50 days of 30 mg/kg/d) was “approximately 50%”. The “doses giving significant tumor growth inhibition” value in the series with MV4;11 tumors (MV4;11 tumors) was > 5 mg/kg/day. The “minimum statistically effective dose” value in the series with MV4;11 tumors (MV4;11 tumors, p<0.01 vs. Vehicle) came out at 1 mg/kg/day. Moreover, in the series on MV4;11 tumors (setting [8]), the complete responses came to 15%, the “minor responses or remained stable” value is reported as 15% and the partial responses stood at 70%. In addition, the “time until tumor regressions were evident” value in the series with MV4;11 tumors (large MV4;11 tumors, 30 mg/kg/d) fell in the range of 3 to 5 days. Besides, the “number of CR, second cycle” value with MV4;11 tumors (ten re-grown MV4;11 tumors re-treated with 30 mg/kg/d for 60 days) came out at 2. For the same compound, in the series on RS4;11 tumors (100 mg/kg/d, day 8), the tumour growth inhibition (TGI) was 48%. The compound further came in with a minimum effective dose in the series with RS4;11 tumors (day 8, p<0.01) of 100 mg/kg/day.
The IC50 is the point on the concentration scale where inhibition reaches its midpoint. For the compound `C=C(Br)C(=O)Nc1cc(C(=O)Nc2cc(C(=O)Nc3cc(C(=O)Nc4cc(C(=O)NCCNC(=N)N)n(C)c4)n(C)c3)n(C)c2)n(C)c1` [Brostallicin], the half-inhibitory concentration (IC50) is given as 1.45 ng/mL (≈ 2 nM) in series [5] and 0.46 ng/mL (≈ 0.636 nM) in series [6] (melphalan-resistant L1210). For the same compound, in series [6], the “higher activity in melphalan-resistant L1210 than in the parental line” value is recorded as 3 fold.
